Assays:
[1] = tested on: Acetic Acid-induced Writhing Model; assay: Analgesia test in acetic acid-induced writhing model (oral gavage); type: in vivo; details: CD-1 mice, n=5, mean ± standard error, single oral gavage; for Number of Writhing 5-15 min: 5-15 min after injection of 0.6% glacial acetic acid, acetic acid 2h after administration (Fentanyl intravenous, 10 min after). Dose mg/kg: Fentanyl 0.008, A10-0 18.0, A3 30.0, A10 30.1, A14 30.6, A15 20.6, A17 18.7, A18 32.3, A21 31.8, A22 22.3, A7 40.7, A19 18.4, A23 28.4, A44 32.0, A24 25.5, A53 26.9, A40 34.5, A55 40.5, A57 26.7, A4 30; for Number of Writhing 15-30 min: 15-30 min after injection of 0.6% glacial acetic acid, acetic acid 2h after administration (Fentanyl intravenous, 10 min after). Dose mg/kg: Fentanyl 0.008, A10-0 18.0, A3 30.0, A10 30.1, A14 30.6, A15 20.6, A17 18.7, A18 32.3, A21 31.8, A22 22.3, A7 40.7, A19 18.4, A23 28.4, A44 32.0, A24 25.5, A53 26.9, A40 34.5, A55 40.5, A57 26.7, A4 3; for Time to start writhing: 0.6% glacial acetic acid 2h after administration (Fentanyl intravenous, 10 min after). Dose mg/kg: Fentanyl 0.008, A10-0 18.0, A3 30.0, A10 30.1, A14 30.6, A15 20.6, A17 18.7, A18 32.3, A21 31.8, A22 22.3, A7 40.7, A19 18.4, A23 28.4, A44 32.0, A24 25.5, A53 26.9, A40 34.5, A55 40.5, A57 26.7, A4 30.0; for Number of Writhing Total: total of 5-15 min and 15-30 min after injection of 0.6% glacial acetic acid, acetic acid 2h after administration (Fentanyl intravenous, 10 min after). Dose mg/kg: Fentanyl 0.008, A10-0 18.0, A3 30.0, A10 30.1, A14 30.6, A15 20.6, A17 18.7, A18 32.3, A21 31.8, A22 22.3, A7 40.7, A19 18.4, A23 28.4, A44 32.0, A24 25.5, A53 26.9, A40 34.5, A5
[2] = tested on: inflammatory pain model induced by complete Freund's adjuvant in mice; assay: Mechanical pain test of inflammatory pain model induced by complete Freund's adjuvant in mice; type: in vivo, mice (C57BL/6J); details: C57BL/6J male mice, n=4; tested 0.5h, 2h, 8h, 24h after first administration; Morphine 2 mg/kg subcutaneous; A10-0 5 mg/kg and A3 8.4 mg/kg oral gavage at intervals of 8h

Compound | Number of Writhing 5-15 min [1] | Number of Writhing 15-30 min [1] | Time to start writhing [1] | Number of Writhing Total [1] | analgesic effect on the inflammatory pain model in mice (mechanical pain threshold, Fig. 1) [2] | effect of reducing the sole-swelling degree in mice (plantar thickness, Fig. 2) [2]
COc1cc2c(cc1OC)[C@@H]1Cc3ccc(OC(=O)[C@@H](C)c4ccc(-c5ccccc5)c(F)c4)c(OC)c3CN1CC2 [Compound A4] | 14±14 | 12±14 | 154 ± 151 s | 26±27 |  | 
COc1cc2c(cc1OC)[C@@H]1Cc3ccc(O)c(OC)c3CN1CC2 [Compound A10-0, Corydalmine] | 4±3 | 5±3 | 545 ± 221 s | 9±2 | did not have a significant analgesic effect on the inflammatory pain model in mice | had an effect of reducing the sole-welling degree in mice, but the effect was maintained for a short time
CN1CC[C@]23c4c5ccc(O)c4O[C@H]2[C@@H](O)C=C[C@H]3[C@H]1C5 [Morphine] |  |  |  |  | a good analgesic effect on the inflammatory pain mode in mice, but the effect cannot be maintained for a long term | did not have an effect of reducing the sole-swelling degree in mice
